Source: patent US9796674B2, “Benzyl urea derivatives for activating TGF-beta signaling” (THE BOARD OF TRUSTEES OF THE LELAND STANFORD JUNIOR …, priority 2013, dated 2017)

Key:
Sprague Dawley rats = assay: 7-Day oral gavage dose range finding and toxicokinetic study in rats; assay type: in vivo
Experimental: 7-Day oral gavage dose range finding and toxicokinetic study of SRI-011381 in male and female Sprague Dawley rats: The objective of this study was to determine maximum tolerated dose (MTD), characterize the potential toxicity, and estimate the dose dependence of exposure to SRI-011381 in adult male and female Sprague Dawley rats following daily oral gavage (po) dose administration for 7 consecutive days. The doses studied were 2, 10, and 50 mg/kg, formulated in 15% Solutol/85% sterile water and administered in the volume of 10 ml/kg.
Species and Strain: Sprague Dawley rat; Route of Administration: Oral (po); Frequency: Daily administration for 7 consecutive days; Dosing Volume: 10 ml/kg; Dose volumes will be calculated based on the animal's most recent body weight; Duration of In-life Phase: 8 days; Endpoints: clinical observations, mortality, body weights, clinical chemistry, hematology, gross pathology, organ weights, histopathology, toxicokinetics.

[1] = system: APP751Lon,Swe transgenic mice; assay: Efficacy in APP751Lon,Swe transgenic mouse model; assay type: in vivo; conditions: for Y-maze working memory (spontaneous alternations): po 3 times per week
Source text: Transgenic mouse models over-producing human APP-containing mutations found in families with autosomal dominant AD reproduce important aspects of AD, including amyloid plaques, neurodegeneration, and cognitive deficits. Transgenic mice which overexpress human APP751^V717I, K670M/N671L (aka London and Swedish mutations) in neurons under control of a Thy1.2 promoter, specifically Line 41 generated according to Rockenstein et al., (2001) J. Neurosci. Res. 66: 573-582, incorporated herein by reference in its entirety, develop amyloid pathology, neurodegeneration, and cognitive deficits (Rockenstein et al. 2001). These mice (short APP751^Lon,Swe) have been studied by multiple laboratories (Pickford et al. (2008) J. Clin. Invest. doi:10.1172/JCI33585; Knowles et al., (2009) J. Neuroscience 29: 10627-10637) and have been used as a model for drug development.
Compound SRI-011381 was dissolved in a vehicle containing 15% solutol and 85% water. The formulated compound was administered orally to APP751^Lon,Swe transgenic mice or littermate non-transgenic controls (male, 6.5-7.5 months of age) at 0 (vehicle only), 10, 30 mg/kg of body weight 3 times per week for 10 weeks (n=7-11 mice per group). Behavioral studies started at this point. Oral gavage of the compound continued throughout the course of the studies until the mice were sacrificed 17 weeks after treatment had been initiated (thus mice were treated for roughly 4 months total before they were sacrificed). Plasma samples were collected for future proteomic assays. One hemibrain was fixed in 4% PFA for 48 h and kept in 2% PFA at 4° C. for neuropathologcial analysis. The other hemibrain was snap frozen. Both the serum and frozen brain samples were placed into −80° C. freezer for long-term storage.
To determine the effects of SRI-011381 (381) treatment on AD-like pathology brains from APP751^Lon,Swe transgenic and non-transgenic littermate control mice treated with vehicle, 10 mg/kg, or 30 mg/kg of compound were sectioned into 40 μm free-floating sections with a vibratome. Brain sections were stained with antibodies against Aβ, phosphorylated tau (PHF1), calbindin, microtubule associated protein2 (MAP2), synaptophysin (SY38), NeuN, and Iba1. In addition, hippocampus and neocortex from one hemibrain from APP751^Lon,Swe mice were homogenized with guanidine, and levels of Aβ1-42 and Aƒβ1-x were measured by ELISA.

GFAP-luc mice = assay: Kainic acid lesion in GFAP-luc mice, bioluminescence; assay type: in vivo, mouse; conditions: kainic acid 20 mg/kg
Experimental: FIGS. 5A-5B show GFAP-luc mice (2-month-old) lesioned with kainic acid (20 mg/kg). Bioluminescence was recorded longitudinally at indicated time points in each mouse. Representative images showing increased bioluminescence signals over the brain after kainic acid injury (left panel) and the reduction by SRI-011381 (381) treatment (right panel) (FIG. 5A). Bioluminescence is expressed as fold induction over baseline, which was measured 1 day before kainic acid administration for each mouse (FIG. 5B). Bars are mean±SEM (n=4-7 mice). The mice were sacrificed 5 days later. Brains were removed, fixed with paraformaldehyde, sectioned and stained with cresyl violet, or immunohistochemical methods. […] Bars are mean±SEM (n=4-7 mice/group) and the asterisk signifies P<0.05 by unpaired t test.

[2] = Cytotoxicity in VERO cells; assay type: cell-based; conditions: African green monkey, read-out: LC50 (the source's name)
Experimental: In Vitro Cytotoxicity: The cytotoxicity of SRI-011381 was determined in primary rat hepatocytes and in VERO cells.
Cytotoxicity: In vitro cytotoxicity assays are used to estimate the relative toxicity of test compounds, e.g. a set of chemical analogs prior to efficacy screening. To estimate “basal” toxicity, a cell line such as VERO cells are typically used. Additional factors including drug metabolism can alter the relative toxicity of a compound in vivo. Primary cultures from liver (either laboratory species or human) can be used to assess the relative toxicity of compounds where metabolism may be a factor.

[3] = PAMPA-BBB permeability assay; assay type: in vitro ADME
Experimental: Permeability Assays: PAMPA screens, both for absorption from the gut and through blood brain barrier, were used as a first tier screen for this program. SRI-011381 was evaluated in the double sink assay format and the sum of the permeability coefficients at three pH values (7.4, 6.2, 5.0) was calculated (Pe) to be 781×10^−6 cm/s, which is consistent with an orally available compound.
Permeability PAMPA: The PAMPA assay was used to predict oral bioavailability of compounds. The PAMPA determines the permeability of compounds across a biological membrane using a synthetic lipid membrane and detection by UV absorbance. […] The PAMPA-BBB assay was performed, to predict permeability to the blood brain barrier, as an aqueous assay and as a co-solvent assay. In this assay the composition of the lipid membrane included brain-derived lipids, mimicking the BBB membrane.

[4] = po 2, 10, 50 mg/kg daily for 7 days

For `O=C(NC1CCCCC1)N(Cc1ccccc1)CC1CCNCC1` [SRI-011381, 1-Benzyl-3-cyclohexyl-1-(piperidin-4-ylmethyl)urea], the LDH (Sprague Dawley rats; high dose group (50 mg/kg)) was “significantly lower in male rats of the high dose group”, the “gender related differences in exposure” value (Sprague Dawley rats; male and female rats) was “nor were gender related differences observed” and the “exposure after 7 doses compared to the first dose” value (Sprague Dawley rats; po 2, 10, 50 mg/kg) was “no apparent change in exposure”. For the same compound, the “alkaline phosphatase (ALP) levels” value (Sprague Dawley rats; [4]) was “significantly elevated in all treatment groups in the female rats, though not in males”, the body weight (Sprague Dawley rats; [4]) was “no statistically significant differences in body weight” and the clinical observations (Sprague Dawley rats; [4]) was “appeared normal”. For the same compound, the hematology parameters (Sprague Dawley rats; [4]) was “no significant changes in any hematology parameters”, the “exposure based on plasma collected 1 h after dose” value (Sprague Dawley rats; po 2, 10, 50 mg/kg, Day 1 and 7) was “increased in a dose dependent fashion” and the “fear conditioning: context memory” value ([1]; 10 mg/kg) was “significantly improved”. For the same compound, the “rescue of working memory deficit (Y-maze)” value ([1]; 10 mg/kg po 3 times per week, 10 weeks) was > 50%, the “fear conditioning: cued memory to the tone” value ([1]; 10 or 30 mg/kg) was “no significant differences” and the “fear conditioning: learning of the tone response (freezing, tone 4)” value ([1]; 10 or 30 mg/kg) was “completely absent”. For the same compound, the “Aβ immunoreactivity in hippocampus and cortex” value ([1]; 10 or 30 mg/kg, about 4 months) was “trend was seen towards lower levels”, the “Aβ levels by ELISA in hippocampus and cortex” value ([1]; 10 or 30 mg/kg, about 4 months) was “non-significant trends towards lower Aβ levels” and the “increase in expression of PHF1” value ([1]; 10 or 30 mg/kg, about 4 months) was “almost completely absent”. For the same compound, the “level of Iba1” value ([1]; 10 or 30 mg/kg, about 4 months) was “did not significantly change”, the “levels of calbindin, synaptophysin, MAP-2 and NeuN” value ([1]; 10 or 30 mg/kg, about 4 months) was “significantly higher levels of these neuronal markers” and the “fear conditioning: cued memory to the tone” value ([1]; 10 or 30 mg/kg, listed as 381) was “No freezing difference”. The “fear conditioning: learning of the tone response (freezing, tone 4)” value ([1]; 10 or 30 mg/kg, listed as 381) was “significant increase in freezing”, the “rescue of contextual memory deficit” value ([1]; oral) was “greater than 50%” and the “Y-maze working memory (spontaneous alternations)” value ([1]; 10 weeks) was “not significantly impaired compared with littermate non-transgenic controls”. For the same compound, the “Y-maze working memory (spontaneous alternations)” value ([1]; 10 weeks, listed as 381) was “improved”, the neurodegeneration ([1]; two dose levels, 4-month-period of treatment) was “marked amelioration of neurodegeneration” and the “bioluminescence signals over the brain after kainic acid injury” value (GFAP-luc mice) was “reduction”. For the same compound, the CC50 [2] was 167 µM, the “PAMPA-BBB Pe” value [3] was 4.2±2.2 ×10^−6 cm/s and the Papp ([3]; PAMPA, read-out: PAMPA-BBB Pe) was 4.2 ± 2.2 ×10⁻⁶ cm/s.
